Biological target: T1, recombinant human FAAH (rhFAAH) (Homo sapiens, UniProt O00519)
T1 construct: purchased Cayman Chemical (Ann Arbor, MI, USA)
T1 sequence (O00519 1-579): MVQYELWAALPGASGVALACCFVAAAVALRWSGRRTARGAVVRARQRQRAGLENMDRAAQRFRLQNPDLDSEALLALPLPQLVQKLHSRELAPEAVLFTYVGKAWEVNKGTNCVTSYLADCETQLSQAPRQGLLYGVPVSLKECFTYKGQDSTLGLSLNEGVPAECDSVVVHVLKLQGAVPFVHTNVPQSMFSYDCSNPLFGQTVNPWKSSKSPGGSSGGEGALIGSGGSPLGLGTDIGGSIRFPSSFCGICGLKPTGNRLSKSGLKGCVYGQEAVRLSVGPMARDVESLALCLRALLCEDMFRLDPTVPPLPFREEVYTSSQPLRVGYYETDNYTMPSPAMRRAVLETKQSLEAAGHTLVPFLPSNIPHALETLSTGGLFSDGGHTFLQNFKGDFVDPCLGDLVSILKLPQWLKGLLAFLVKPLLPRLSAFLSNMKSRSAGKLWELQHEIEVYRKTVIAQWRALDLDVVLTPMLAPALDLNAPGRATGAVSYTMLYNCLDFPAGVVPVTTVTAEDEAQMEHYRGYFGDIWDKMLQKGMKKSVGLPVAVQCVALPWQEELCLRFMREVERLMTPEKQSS
Test: FAAH Substrate Evaluation (formation of acid metabolite from amide prodrug)
Assay type: biochemical
Conditions: 0.5 ng/μL rhFAAH, 1 μM test compound, Tris-EDTA buffer pH 8.0, 0.1% BSA, room temperature, 0-60 minutes, LC-MS/MS
Method: Purified recombinant human FAAH (rhFAAH) was purchased from Cayman Chemical (Ann Arbor, MI, USA). The total volume for each incubation was 400 μL containing a final 0.5 ng/μL rhFAAH, 1 μM test compound, 1.25% ethanol or 1 μM PF-3845 (FAAH inhibitor), and 0.1% bovine serum albumin in Tris-EDTA buffer at pH 8.0). The positive control was LL-341001. The incubation was conducted at the room temperature. At 0, 5, 15, 30 and 60 minutes, an aliquot of 30 μL reaction mixtures was removed and mixed with 300 μL acetonitrile containing 5 ng/mL terfenadine and 10 ng/ml tolbutamide as internal standards to quench the reaction. The resulting mixture was centrifuged at 4000 rpm, 4° C. for 15 minutes, and 100 μL supernatant was ready for LC-MS/MS analysis to measure the formation of acid metabolite.
Acquity Ultra Performance LC system from Waters was used for sample analysis. The chromatography was performed on a reverse phase Kinetex 2.6 μm C18 column, 2.1×30 mm, 100 Å. The mobile phase A comprised of 0.1% formic acid in water and mobile phase B comprised of 0.1% formic acid in acetonitrile with a 2-min run time at the flow rate of 0.8 mL/min for the acid metabolite from positive control or a 1.5 min run time at the flow rate of 0.9 mL/min for the acid metabolite of test compounds. The mass spectrometer (API-5500 and API Q Trap 4000 Applied Biosystems/MDS SCIEX Instruments, Framingham, MA, USA) was operated under ESI positive or negative ion MRM mode.
The formation of acid metabolite was monitored and quantified using one calibration point of 1 μM. The observed rate constant (ke) for the acid metabolite formation was calculated by plotting the metabolite concentration versus time of incubation with the slope being ke and is shown in Table 1.

Structure (SMILES) | ke (observed rate constant for the acid metabolite formation)
C[C@@H](CO)NC(=O)C1CN(CC2=Cc3ccc(OCCCC(F)(F)F)cc3C[C@@H]2C)C1 [Compound 2, N—((S)-1-hydroxypropan-2-yl)-1-(((S)-3-methyl-6-(4,4,4-trifluorobutoxy)-3,4-dihydronaphthalen-2-yl)methyl)azetidine-3-carboxamide] | B (ke is less than 1.0 and more than 0)
C[C@H]1Cc2cc(OCCCC(F)(F)F)ccc2C=C1CN1CC(C(=O)Nc2cncnc2)C1 [Compound 3, (S)-1-((3-methyl-6-(4,4,4-trifluorobutoxy)-3,4-dihydronaphthalen-2-yl)methyl)-N-(pyrimidin-5-yl)azetidine-3-carboxamide] | A (ke is more than or equal to 1.0)
C[C@H]1Cc2cc(OCCCC(F)(F)F)ccc2C=C1CN1CC(C(=O)Nc2ccnnc2)C1 [Compound 4, (S)-1-((3-methyl-6-(4,4,4-trifluorobutoxy)-3,4-dihydronaphthalen-2-yl)methyl)-N-(pyridazin-4-yl)azetidine-3-carboxamide] | A (ke is more than or equal to 1.0)
COCCNC(=O)C1CN(CC2=Cc3ccc(OCCCC(F)(F)F)cc3C[C@@H]2C)C1 [Compound 5, (S)—N-(2-methoxyethyl)-1-((3-methyl-6-(4,4,4-trifluorobutoxy)-3,4-dihydronaphthalen-2-yl)methyl)azetidine-3-carboxamide] | A (ke is more than or equal to 1.0)
C[C@H]1Cc2cc(OCCCC(F)(F)F)ccc2C=C1CN1CC(C(=O)NCC(C)(C)C)C1 [Compound 6, (S)-1-((3-methyl-6-(4,4,4-trifluorobutoxy)-3,4-dihydronaphthalen-2-yl)methyl)-N-neopentylazetidine-3-carboxamide] | B (ke is less than 1.0 and more than 0)
CC(C)CNC(=O)C1CN(CC2=Cc3ccc(OCCCC(F)(F)F)cc3C[C@@H]2C)C1 [Compound 7, (S)—N-isobutyl-1-((3-methyl-6-(4,4,4-trifluorobutoxy)-3,4-dihydronaphthalen-2-yl)methyl)azetidine-3-carboxamide] | A (ke is more than or equal to 1.0)
CC[C@@H](C)NC(=O)C1CN(CC2=Cc3ccc(OCCCC(F)(F)F)cc3C[C@@H]2C)C1 [Compound 8, N—((R)-sec-butyl)-1-(((S)-3-methyl-6-(4,4,4-trifluorobutoxy)-3,4-dihydronaphthalen-2-yl)methyl)azetidine-3-carboxamide] | A (ke is more than or equal to 1.0)
C[C@H]1Cc2cc(OCCCC(F)(F)F)ccc2C=C1CN1CC(C(=O)N(C)CC(C)(C)C)C1 [Compound 9, (S)—N-methyl-1-((3-methyl-6-(4,4,4-trifluorobutoxy)-3,4-dihydronaphthalen-2-yl)methyl)-N-neopentylazetidine-3-carboxamide] | C (ke is 0)
CCCNC(=O)C1CN(CC2=Cc3ccc(OCCCC(F)(F)F)cc3C[C@@H]2C)C1 [Compound 10, (S)-1-((3-methyl-6-(4,4,4-trifluorobutoxy)-3,4-dihydronaphthalen-2-yl)methyl)-N-propylazetidine-3-carboxamide] | A (ke is more than or equal to 1.0)
C[C@H]1Cc2cc(OCCCC(F)(F)F)ccc2C=C1CN1CC(C(=O)N(C)C)C1 [Compound 11, (S)—N,N-dimethyl-1-((3-methyl-6-(4,4,4-trifluorobutoxy)-3,4-dihydronaphthalen-2-yl)methyl)azetidine-3-carboxamide] | B (ke is less than 1.0 and more than 0)
CNC(=O)C1CN(CC2=Cc3ccc(OCCCC(F)(F)F)cc3C[C@@H]2C)C1 [Compound 12, (S)—N-methyl-1-((3-methyl-6-(4,4,4-trifluorobutoxy)-3,4-dihydronaphthalen-2-yl)methyl)azetidine-3-carboxamide] | B (ke is less than 1.0 and more than 0)
C[C@H]1Cc2cc(OCCCC(F)(F)F)ccc2C=C1CN1CC(C(=O)Nc2cccnc2)C1 [Compound 13, (S)-1-((3-methyl-6-(4,4,4-trifluorobutoxy)-3,4-dihydronaphthalen-2-yl)methyl)-N-(pyridin-3-yl)azetidine-3-carboxamide] | A (ke is more than or equal to 1.0)
C[C@H](CO)NC(=O)C1CN(CC2=Cc3ccc(OCCCC(F)(F)F)cc3C[C@@H]2C)C1 [Compound 14, N—((R)-1-hydroxypropan-2-yl)-1-(((S)-3-methyl-6-(4,4,4-trifluorobutoxy)-3,4-dihydronaphthalen-2-yl)methyl)azetidine-3-carboxamide] | B (ke is less than 1.0 and more than 0)
C[C@H](O)CNC(=O)C1CN(CC2=Cc3ccc(OCCCC(F)(F)F)cc3C[C@@H]2C)C1 [Compound 15, N—((S)-2-hydroxypropyl)-1-(((S)-3-methyl-6-(4,4,4-trifluorobutoxy)-3,4-dihydronaphthalen-2-yl)methyl)azetidine-3-carboxamide] | B (ke is less than 1.0 and more than 0)
CCCN(C)C(=O)C1CN(CC2=Cc3ccc(OCCCC(F)(F)F)cc3C[C@@H]2C)C1 [Compound 16, (S)—N-methyl-1-((3-methyl-6-(4,4,4-trifluorobutoxy)-3,4-dihydronaphthalen-2-yl)methyl)-N-propylazetidine-3-carboxamide] | C (ke is 0)
CC[C@H](C)NC(=O)C1CN(CC2=Cc3ccc(OCCCC(F)(F)F)cc3C[C@@H]2C)C1 [Compound 17, N—((S)-sec-butyl)-1-(((S)-3-methyl-6-(4,4,4-trifluorobutoxy)-3,4-dihydronaphthalen-2-yl)methyl)azetidine-3-carboxamide] | B (ke is less than 1.0 and more than 0)
COC[C@H](C)NC(=O)C1CN(CC2=Cc3ccc(OCCCC(F)(F)F)cc3C[C@@H]2C)C1 [Compound 18, N—((S)-1-methoxypropan-2-yl)-1-(((S)-3-methyl-6-(4,4,4-trifluorobutoxy)-3,4-dihydronaphthalen-2-yl)methyl)azetidine-3-carboxamide] | B (ke is less than 1.0 and more than 0)
C[C@H]1Cc2cc(OCCCC(F)(F)F)ccc2C=C1CN1CC(C(=O)NCC2CC2)C1 [Compound 19, (S)—N-(cyclopropylmethyl)-1-((3-methyl-6-(4,4,4-trifluorobutoxy)-3,4-dihydronaphthalen-2-yl)methyl)azetidine-3-carboxamide] | A (ke is more than or equal to 1.0)
C[C@H]1Cc2cc(OCCCC(F)(F)F)ccc2C=C1CN1CC(C(=O)NC2CC2)C1 [Compound 20, (S)—N-cyclopropyl-1-((3-methyl-6-(4,4,4-trifluorobutoxy)-3,4-dihydronaphthalen-2-yl)methyl)azetidine-3-carboxamide] | A (ke is more than or equal to 1.0)
C[C@@H](O)CNC(=O)C1CN(CC2=Cc3ccc(OCCCC(F)(F)F)cc3C[C@@H]2C)C1 [Compound 21, N—((R)-2-hydroxypropyl)-1-(((S)-3-methyl-6-(4,4,4-trifluorobutoxy)-3,4-dihydronaphthalen-2-yl)methyl)azetidine-3-carboxamide] | B (ke is less than 1.0 and more than 0)
C[C@H]1Cc2cc(OCCCC(F)(F)F)ccc2C=C1CN1CC(C(=O)NCCCF)C1 [Compound 22, (S)-N-(3-fluoropropyl)-1-((3-methyl-6-(4,4,4-trifluorobutoxy)-3,4-dihydro-naphthalen-2-yl)methyl)azetidine-3-carboxamide] | B (ke is less than 1.0 and more than 0)
C[C@H]1Cc2cc(OCCCC(F)(F)F)ccc2C=C1CN1CC(C(=O)Nc2ccncc2)C1 [Compound 24, (S)-1-((3-methyl-6-(4,4,4-trifluorobutoxy)-3,4-dihydronaphthalen-2-yl)methyl)-N-(pyridin-4-yl) azetidine-3-carboxamide] | A (ke is more than or equal to 1.0)

— patent US20260265227A1, “AMIDE PRODRUGS AND USES THEREOF” (Autobahn Therapeutics, Inc., priority 2022, published 2026)
